Here are results for two compounds from ChEMBL document CHEMBL1671791, “Electron paramagnetic resonance (EPR) study of spin-labeled camptothecin derivatives: a different look of the ternary complex” (J Med Chem, 2011).

The target of experiment [1] is T1, DNA topoisomerase 1 (Homo sapiens) (UniProt P11387).
T1 sequence (whole entry): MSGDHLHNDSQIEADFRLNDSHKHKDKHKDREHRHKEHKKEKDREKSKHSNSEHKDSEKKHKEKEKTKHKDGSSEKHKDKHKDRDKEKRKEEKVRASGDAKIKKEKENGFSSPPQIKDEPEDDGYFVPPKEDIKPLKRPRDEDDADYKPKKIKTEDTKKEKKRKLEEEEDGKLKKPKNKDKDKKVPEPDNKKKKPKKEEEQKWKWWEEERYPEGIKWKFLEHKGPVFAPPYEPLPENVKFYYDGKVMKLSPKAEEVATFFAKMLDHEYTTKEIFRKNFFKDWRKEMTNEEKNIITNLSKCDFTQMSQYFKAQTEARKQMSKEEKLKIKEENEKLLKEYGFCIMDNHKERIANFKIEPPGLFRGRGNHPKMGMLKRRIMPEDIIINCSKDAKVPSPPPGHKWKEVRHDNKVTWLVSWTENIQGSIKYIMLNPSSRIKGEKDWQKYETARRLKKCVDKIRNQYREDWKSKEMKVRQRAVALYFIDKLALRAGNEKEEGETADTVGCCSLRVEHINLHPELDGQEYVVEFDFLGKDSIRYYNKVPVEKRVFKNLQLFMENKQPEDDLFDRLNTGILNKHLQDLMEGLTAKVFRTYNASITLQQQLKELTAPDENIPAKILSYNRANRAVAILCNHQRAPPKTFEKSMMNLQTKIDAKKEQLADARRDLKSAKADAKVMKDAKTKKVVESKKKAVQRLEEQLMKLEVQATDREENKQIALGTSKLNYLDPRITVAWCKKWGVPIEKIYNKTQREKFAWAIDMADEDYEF
The experiment in a line: Inhibition of human recombinant DNA topoisomerase 1-mediated DNA cleavage at 0.1 to 100 uM after 20 mins.

Experiment [2] deals with T1, DNA topoisomerase 1 (Homo sapiens). The experiment in a line: Binding affinity to human recombinant DNA topoisomerase 1 at 20 uM by electron paramagnetic resonance analysis.
Experiment [3] has the same target. The experiment in a line: Reversible inhibition of human recombinant DNA topoisomerase 1-mediated DNA cleavage at 0.1 to 100 uM after 20 mins.

Activity calls are given as the source filed them. The calls are words filed in the database; no cut-off is given here.

As to `CC[C@@]1(O)C(=O)OCc2c1cc1n(c2=O)Cc2c-1nc1ccccc1c2C(=O)NC1CC(C)(C)N([O])C(C)(C)C1`, the inhibition result in experiment [1] is “Active”.
As to `CC[C@@]1(O)C(=O)OCc2c1cc1n(c2=O)Cc2c-1nc1ccccc1c2/C=N/C1CC(C)(C)N([O])C(C)(C)C1`, the inhibition result in experiment [1] and in experiment [3] was “Active” in each case. Besides, the result in experiment [2] was Active.
